{
  "source": "patent US8003610B2",
  "about": "“Bradykinin B2 receptor antagonist peptide from amphibian skin” (priority 2003, dated 2011)",
  "key": {"[1]": {"target": "autologous receptor (of ornithokinin) cloned from chicken", "settings": "(Tyr^0)-radioiodinated ornithokinin as competing ligand; read-out: affinity; cited from earlier work"}, "bradykinin B2 receptors": {"target": "T1, bradykinin B2 receptors (Rattus norvegicus, UniProt P25023)", "T1 construct": "phenylephrine pre-constricted rat tail artery preparation; from tissue; host or cells: rat tail artery (arterial smooth muscle preparation)", "T1 sequence (P25023 1-396)": "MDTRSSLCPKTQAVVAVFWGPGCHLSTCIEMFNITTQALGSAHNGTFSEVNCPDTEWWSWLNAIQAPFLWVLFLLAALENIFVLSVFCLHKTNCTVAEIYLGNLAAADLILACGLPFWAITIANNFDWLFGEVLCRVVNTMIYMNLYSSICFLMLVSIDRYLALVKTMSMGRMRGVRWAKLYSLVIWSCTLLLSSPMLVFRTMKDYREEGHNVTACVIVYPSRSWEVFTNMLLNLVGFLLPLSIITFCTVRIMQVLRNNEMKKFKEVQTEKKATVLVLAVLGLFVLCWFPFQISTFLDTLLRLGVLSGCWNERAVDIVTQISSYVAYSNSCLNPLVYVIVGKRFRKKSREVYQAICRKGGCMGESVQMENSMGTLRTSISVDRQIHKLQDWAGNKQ", "test": "inhibition of bradykinin-induced relaxation in phenylephrine pre-constricted rat tail artery preparation", "method": "Male albino Wistar rats (200-250 g) were euthanised by asphyxiation followed by cervical dislocation. The tail artery was prepared as described previously (Chen T et al, Peptides. 2002; 23:1547-1555, Chen T et al, Eur. J. Biochem. 2002; 269:4693-4700, Hirst et al Br. J. Radiol. 1994; 67:795-799). After perfusion of arterial preparations with 1×10^−5M phenylephrine to obtain constriction plateaux, relative relaxation was recorded as described below following applications of reconstituted 100 μl aliquots of HPLC fraction samples (1-240) from B. maxima skin secretion. […] The preparations were perfused as before with phenylephrine (1×10^−5M) until constriction plateaux were obtained. Following this, combinations of phenylephrine (1×10^−5M) and reconstituted non-myoactive fractions were perfused through individual preparations for 20 min. Immediately after this, the perfusate was replaced by a combination of phenylephrine (1×10^−5M), bradykinin (1×10^−6M) and reconstituted individual fractions. Changes in arterial smooth muscle tone were measured by a pressure transducer system and the percentage relative relaxations induced by bradykinin in the presence of reconstituted fractions were calculated using the MacLab computer package.\nArterial smooth muscle preparations were prepared as described previously and treated with phenylephrine (1×10^−5M) until constriction plateaux were achieved. Following this a series of experiments were performed to address the pharmacological characterization of the novel peptide, kinestatin. 1) Separate dose response curves were constructed for bradykinin and kinestatin using concentrations of both peptides in the range of 10^−11 to 10^−5M. […] The preparations were prepared as described before. […] Following this, phenylephrine (1×10^−5M) was added to the antagonist solution and perfused for 10 min to develop contraction of the arterial smooth muscle. On obtaining stable plateaux of constriction, the perfusate was replaced by another containing phenylephrine, antagonist and bradykinin (1×10^−6M). During a 20 min perfusion period, changes in arterial pressure were recorded as described previously. In a second similar series of experiments, kinestatin (1×10^−8M) was added to each of the specific bradykinin receptor sub-type antagonist solutions prior to the procedure described above. Data were analysed by computer using Students t test available on the Graph Pad Prism™ programme."}, "[2]": {"tested_on": "human microvascular endothelial cell line (HMEC-1)", "test": "proliferation of endothelial cell line", "format": "cell-based", "settings": "FIG. 11", "description": "FIG. 11 is a graph comparing the effect of control (▪), kinestsin (Q-9-R-(-7) (▴) and fumagillin (▾) on the proliferation of the human microvascular endothelial cell line (HMEC-1)."}, "[3]": {"tested_on": "rat tail artery smooth muscle", "test": "direct relaxation of phenylephrine pre-constricted rat tail artery preparation", "settings": "synthetic replicate, in the effective molar concentration range of bradykinin, FIG. 4A", "method": "Male albino Wistar rats (200-250 g) were euthanised by asphyxiation followed by cervical dislocation. The tail artery was prepared as described previously (Chen T et al, Peptides. 2002; 23:1547-1555, Chen T et al, Eur. J. Biochem. 2002; 269:4693-4700, Hirst et al Br. J. Radiol. 1994; 67:795-799). After perfusion of arterial preparations with 1×10^−5M phenylephrine to obtain constriction plateaux, relative relaxation was recorded as described below following applications of reconstituted 100 μl aliquots of HPLC fraction samples (1-240) from B. maxima skin secretion. This was carried out to exclude those fractions (25) containing direct arterial smooth muscle relaxant activity. […] Changes in arterial smooth muscle tone were measured by a pressure transducer system and the percentage relative relaxations induced by bradykinin in the presence of reconstituted fractions were calculated using the MacLab computer package.\nArterial smooth muscle preparations were prepared as described previously and treated with phenylephrine (1×10^−5M) until constriction plateaux were achieved. […] 2) The effect of prior addition of a range of concentrations of kinestatin on the observed activity of subsequently added bradykinin at its maximally effective concentration (10^−6M) was determined. […] During a 20 min perfusion period, changes in arterial pressure were recorded as described previously. […]"}, "[4]": {"tested_on": "human microvascular endothelial cells (HMEC-1)", "test": "endothelial cell migration into 1 cm wound in cell monolayer", "format": "cell-based", "method": "FIG. 9 is a graph comparing the ability of kinestatin (▪) and fumagillin (▾) to inhibit the migration of human microvascular endothelial cells (HMEC-1) into a wound in a dose- and time-dependent manner\nFIG. 10 is a time response curve showing the delay in complete closure of endothelial cell 1 cm wounds in the presence of kinestatin (▪) and non-treated control cells (▴).\nExpt. […] Kinestatin prolonged wound closure time by 100% from 7 h (control) to 14 h (treatment) (FIG. 10)."}, "[5]": {"tested_on": "endothelial tube structures on Matrigel matrix plates", "test": "Matrigel tube formation assay", "format": "cell-based", "settings": "FIG. 8", "description": "FIG. 8 is a graph comparing the ability of kinestatin (▪) and fumagillin (▴) to inhibit the formation of endothelial tube structures on Matrigel matrix plates."}, "B1-receptor": {"target": "T2, B1-receptor (Oryctolagus cuniculus, UniProt P48748)", "T2 construct": "in B1-receptor-rich preparations, such as the rabbit aorta; host or cells: rabbit aorta tissue preparation", "T2 sequence (P48748 1-352)": "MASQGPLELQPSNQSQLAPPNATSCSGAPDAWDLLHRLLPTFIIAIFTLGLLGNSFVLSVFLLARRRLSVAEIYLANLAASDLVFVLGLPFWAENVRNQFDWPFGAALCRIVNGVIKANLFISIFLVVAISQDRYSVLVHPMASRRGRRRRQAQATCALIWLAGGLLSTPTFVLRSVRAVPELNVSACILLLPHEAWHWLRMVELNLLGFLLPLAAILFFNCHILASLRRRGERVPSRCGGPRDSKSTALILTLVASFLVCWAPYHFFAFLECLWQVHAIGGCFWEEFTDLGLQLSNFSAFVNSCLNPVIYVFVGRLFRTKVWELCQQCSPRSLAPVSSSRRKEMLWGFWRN", "settings": "cited from earlier work"}, "[6]": {"tested_on": "recombinantly-expressed receptor (of ornithokinin)", "settings": "cited from earlier work"}},
  "note": "Square brackets hold non-standard residues; d marks the D form. Ends that are not written are not given here. pGlu = O=C1CC[C@@H](C(=O)O)N1",
  "data": [
    {"compound": "RPPGFTPLR [ornithokinin]", "values": [
      {"measurement": "Kd", "setting": "[1]", "result": 4.7, "unit": "nM"}
    ]},
    {"compound": "pGlu-Ile-Pro-Gly-Leu-Gly-Pro-Leu-Arg.NH2 ([pGlu]IPGLGPLR-NH2; SMILES CC[C@H](C)[C@H](NC(=O)[C@@H]1CCC(=O)N1)C(=O)N1CCC[C@H]1C(=O)NCC(=O)N[C@@H](CC(C)C)C(=O)NCC(=O)N1CCC[C@H]1C(=O)N[C@@H](CC(C)C)C(=O)N[C@@H](CCCNC(=N)N)C(N)=O; listed as Bombina maxima) [kinestatin, bradykinin B2 receptor antagonist nonapeptide from skin secretion of Bombina maxima; synthetic replicate tested]", "values": [
      {"measurement": "potency as bradykinin antagonist relative to Leu^8 bradykinin", "setting": "bradykinin B2 receptors", "result": "~10", "unit": "×"},
      {"measurement": "inhibition of bradykinin-induced relaxation in HOE 140-treated preparations", "setting": "bradykinin B2 receptors; kinestatin 1×10^−8M added, HOE 140 3×10^−7M, p=0.0015, n=6", "result": "significant inhibition"},
      {"measurement": "inhibition of bradykinin-induced relaxation in des Arg HOE 140-treated preparations", "setting": "bradykinin B2 receptors; kinestatin 1×10^−8M added, des Arg HOE 140 3×10^−7M, p=0.033, n=6", "result": "significant inhibition"},
      {"measurement": "effect on bradykinin-induced relaxation dose response curve", "setting": "bradykinin B2 receptors; kinestatin at 1×10^−8M, FIG. 4C", "result": "Virtual total abolition"},
      {"measurement": "maximally inhibitory concentration", "setting": "bradykinin B2 receptors; prior addition, bradykinin dose response", "result": "10^−8 M"},
      {"measurement": "receptor mediating the inhibition", "setting": "bradykinin B2 receptors; rat tail arterial smooth muscle", "result": "antagonism at B2 receptors"},
      {"measurement": "block of maximal bradykinin relaxing activity", "setting": "bradykinin B2 receptors; ten nanomolar kinestatin, one micromolar bradykinin", "result": "almost totally blocked"},
      {"measurement": "mechanism of inhibition", "setting": "bradykinin B2 receptors; within this concentration range", "result": "non-competitive mechanism"},
      {"measurement": "cell proliferation", "setting": "[2]", "result": "profound effects on inhibition of cell proliferation"},
      {"measurement": "myorelaxant activity", "setting": "[3]", "result": "devoid of myorelaxant activity"},
      {"measurement": "maximal inhibitory effect on migration", "setting": "[4]; FIG. 9", "result": "same maximal inhibitory effect"},
      {"measurement": "potency relative to fumagillin", "setting": "[4]; FIG. 9", "result": "more potent on a molar basis"},
      {"measurement": "endothelial cell migration", "setting": "[4]; time to half closure of 1 cm wide wound", "result": "inhibition in endothelial cell migration"},
      {"measurement": "wound closure time", "setting": "[4]; treatment, FIG. 10", "result": 14, "unit": "h"},
      {"measurement": "prolongation of wound closure time", "setting": "[4]; versus control, FIG. 10", "result": 100, "unit": "%"},
      {"measurement": "effect on tube formation", "setting": "[5]", "result": "inhibitory effect"}
    ]},
    {"compound": "CO[C@@H]1[C@H](OC(=O)/C=C/C=C/C=C/C=C/C(=O)O)CC[C@]2(CO2)[C@H]1[C@@]1(C)O[C@@H]1CC=C(C)C", "note": "[fumagillin, reference compound]", "values": [
      {"measurement": "cell proliferation", "setting": "[2]", "result": "profound effects on inhibition of cell proliferation"},
      {"measurement": "maximal inhibitory effect on migration", "setting": "[4]; FIG. 9", "result": "same maximal inhibitory effect"},
      {"measurement": "effect on tube formation", "setting": "[5]", "result": "inhibitory effect"}
    ]},
    {"compound": "RPPGFSPLR [Leu^8-bradykinin, bradykinin analogue, found in pickerel frog skin]", "values": [
      {"measurement": "antagonism of bradykinin and des-Arg^9 bradykinin", "setting": "B1-receptor; B1-receptor-rich preparations, rabbit aorta", "result": "potent antagonist"},
      {"measurement": "bradykinin agonist activity", "setting": "B1-receptor; previous pharmacological studies", "result": "devoid of bradykinin agonist activity"}
    ]},
    {"compound": "Arg-Arg-Pro-Hyp-Gly-Thi-Ser-Tic-Oic-Arg [HOE-140]", "values": [
      {"measurement": "function at receptor", "setting": "[6]", "result": "partial agonist"}
    ]}
  ]
}
